Measurements from patent US10676486B2, “Macrocyclic RIP2 kinase inhibitors” (ONCODESIGN S.A., priority 2014, dated 2020).
pIC50: −log10 of the molar value.

Tests used:
RIP2 recombinant protein = RIP2 recombinant protein (Homo sapiens, UniProt O43353); assay: Radiometric protein kinase assay (33PanQinase Activity Assay) for RIP2, peptide-based; assay type: biochemical; conditions: for remaining activity at 0.1 µM / remaining activity at 1 µM: 1 h; for remaining activity at 0.1 µM: compound at 0.1 μM; for remaining activity at 1 µM: compound at 1 μM; for pIC50: ATP 3.0 μM, RIP2 15.7 nM, 30° C., 60 minutes
Chain of RIP2 recombinant protein (O43353 whole entry): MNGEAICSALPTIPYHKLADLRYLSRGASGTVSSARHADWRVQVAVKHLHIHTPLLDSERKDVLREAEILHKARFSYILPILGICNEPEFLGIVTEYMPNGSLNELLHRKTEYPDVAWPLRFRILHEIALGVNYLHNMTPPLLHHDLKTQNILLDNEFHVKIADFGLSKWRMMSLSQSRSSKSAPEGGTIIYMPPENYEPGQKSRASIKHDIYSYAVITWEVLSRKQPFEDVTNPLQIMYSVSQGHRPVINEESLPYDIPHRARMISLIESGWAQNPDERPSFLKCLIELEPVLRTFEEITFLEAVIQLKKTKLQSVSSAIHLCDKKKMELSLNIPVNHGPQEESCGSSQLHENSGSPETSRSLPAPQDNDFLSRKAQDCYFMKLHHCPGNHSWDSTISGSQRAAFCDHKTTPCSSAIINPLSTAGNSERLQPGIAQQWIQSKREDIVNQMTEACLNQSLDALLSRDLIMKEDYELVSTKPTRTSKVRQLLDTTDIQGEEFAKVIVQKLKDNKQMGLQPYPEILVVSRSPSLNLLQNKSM
Protocol: The inhibition of RIP2 kinase was assessed using RIP2 recombinant protein in an in vitro peptide-based kinase assay.
A radiometric protein kinase assay (^33PanQinase® Activity Assay) is used for measuring the kinase activity. All assays are performed in 96-well FlashPlates™ from Perkin Elmer in a 50 μl reaction volume. The reaction cocktail is pipetted in 4 steps in the following order: • 10 μl of non-radioactive ATP solution (in H2O) • 25 μl of assay buffer/[γ-^33P]-ATP mixture • 5 μl of test sample in 10% DMSO • 10 μl of enzyme/substrate mixture
The assay for RIP2 contains 70 mM HEPES-NaOH pH 7.5, 3 mM MgCl2, 3 mM MnCl2, 3 μM Na-orthovanadate, 1.2 mM DTT, 50 μg/mI PEG20000, ATP (3.0 μM), [γ-^33P]-ATP (approx. 5×10^05 cpm per well), protein kinase RIP2 (15.7 nM) and substrate (RBER-Chktide), 2.0 μg/50 μl).
The reaction cocktails were incubated at 30° C. for 60 minutes. The reaction was stopped with 50 μl of 2% (v/v) H3PO4, plates were aspirated and washed two times with 200 μl 0.9% (w/v) NaCl. Incorporation of ^33Pi (counting of “cpm”) was determined with a microplate scintillation counter.
The compounds are dissolved to 10 mM in DMSO. Where needed, solutions are sonicated in a bath sonicator.
Table 4 provides the pIC50 values and % Remaining activity values at two concentrations (1 μM and 0.1 μM) of the compounds according to the invention, obtained using the above mentioned kinase assay.

[1] = several clinical cases; The Oncologist (2013) 18: e3-e5; cited from earlier work
RIP2 = molecular target: T1, RIP2 (Mus musculus, UniProt P58801); conditions: mouse models of chronic inflammatory bowel diseases; J Biol Chem. (2005) 15, 14981-14988; cited from earlier work
T1 construct: host or cells: mouse (in vivo colitis models)
T1 sequence (P58801 whole entry): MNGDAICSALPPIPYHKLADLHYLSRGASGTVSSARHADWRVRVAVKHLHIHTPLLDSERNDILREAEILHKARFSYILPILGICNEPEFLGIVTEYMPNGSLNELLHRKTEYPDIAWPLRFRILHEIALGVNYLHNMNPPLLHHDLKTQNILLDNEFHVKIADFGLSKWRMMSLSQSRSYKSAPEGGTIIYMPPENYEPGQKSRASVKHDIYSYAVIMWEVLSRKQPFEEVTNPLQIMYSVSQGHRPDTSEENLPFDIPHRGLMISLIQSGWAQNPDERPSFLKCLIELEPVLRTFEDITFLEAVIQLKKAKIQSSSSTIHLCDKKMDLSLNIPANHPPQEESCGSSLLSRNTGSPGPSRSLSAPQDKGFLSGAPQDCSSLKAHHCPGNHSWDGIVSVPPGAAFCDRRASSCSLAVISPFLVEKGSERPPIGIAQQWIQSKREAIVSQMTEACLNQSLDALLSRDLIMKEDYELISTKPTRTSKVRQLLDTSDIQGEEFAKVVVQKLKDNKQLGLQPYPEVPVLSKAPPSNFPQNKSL

| Compound | remaining activity at 0.1 µM (RIP2 recombinant protein) [%] | remaining activity at 1 µM (RIP2 recombinant protein) [%] | pIC50 (RIP2 recombinant protein) | melting point [°C] | clinical effect on psoriasis, arthritic symptoms or insulin-resistant type 2 diabetes [1] | effect on induced colitis (RIP2) |
| --- | --- | --- | --- | --- | --- | --- |
| Clc1cc2cc(c1)-c1cnn3ccc(nc13)NC[C@H]1CCCN1CCCO2 [Compound O3] | < 50 | < 50 | > 7.00 | 186.4 |  |  |
| Clc1cc2cc(c1)-c1cnn3ccc(nc13)NC[C@@H]1CCCN1CCO2 [Compound O4] | < 50 | < 50 | > 7.00 | > 300 |  |  |
| Fc1cc2cc(c1)-c1cnn3ccc(nc13)NCC[C@H]1CCCN1CCO2 [Compound O7] | < 50 | < 50 | > 7.00 | > 300 |  |  |
| c1cc2cc(c1)-c1cnn3ccc(nc13)NC[C@@H]1CCCN1CCO2 [Compound O8] | < 50 | < 50 | > 7.00 | > 300 |  |  |
| Clc1cc2cc(c1)-c1cnn3ccc(nc13)NC[C@@H]1CCCN1CCCO2 [Compound O9] | < 50 | < 50 | > 7.00 | > 300 |  |  |
| Fc1cc2cc(c1)-c1cnn3ccc(nc13)NC[C@@H]1CCCN1CCCO2 [Compound O11] | < 50 | < 50 | > 7.00 |  |  |  |
| Fc1c(Cl)cc2cc1OCCN1CCC[C@H]1CNc1ccn3ncc-2c3n1 [Compound O12] | < 50 | < 50 | > 7.00 |  |  |  |
| Fc1cc2cc(c1)-c1cnn3ccc(nc13)NCC1CCCCN1CCO2 (stereo not drawn) [Compound O13] | < 50 | < 50 | > 7.00 |  |  |  |
| C#Cc1cccc(Nc2ncnc3cc(OCCOC)c(OCCOC)cc23)c1 [Erlotinib] |  |  |  |  | efficient to clear psoriasis or reduce arthritic symptoms or insulin-resistant type 2 diabetes |  |
| COc1cc2ncnc(Nc3ccc(F)c(Cl)c3)c2cc1OCCCN1CCOCC1 [Gefitinib] |  |  |  |  | efficient to clear psoriasis or reduce arthritic symptoms or insulin-resistant type 2 diabetes |  |
| C[S+]([O-])c1ccc(-c2nc(-c3ccncc3)c(-c3ccc(F)cc3)[nH]2)cc1 (stereo not drawn) [SB203580] |  |  |  |  |  | efficacious to reduce induced-colitis |

The next lines start with results.

| remaining activity at 0.1 µM (RIP2 recombinant protein) [%] | remaining activity at 1 µM (RIP2 recombinant protein) [%] | pIC50 (RIP2 recombinant protein) | melting point [°C] | Compound | clinical effect on psoriasis, arthritic symptoms or insulin-resistant type 2 diabetes [1] | effect on induced colitis (RIP2) |
| --- | --- | --- | --- | --- | --- | --- |
| < 50 | < 50 | > 7.00 | > 300 | c1cc2cc(c1)-c1cnn3ccc(nc13)NCC1CCCN1CCO2 (stereo not drawn) [Compound O1] |  |  |
|  |  | > 7.00 | 91.2 | CN1CC2CCCN2CCOc2cccc(c2)-c2cnn3ccc1nc23 (stereo not drawn) [Compound O2] |  |  |
| < 50 | < 50 | > 7.00 | 241 | Fc1cc2cc(c1)-c1cnn3ccc(nc13)NC[C@@H]1CCCN1CCO2 [Compound O5] |  |  |
| < 50 | < 50 | > 7.00 | > 300 | Fc1cc2cc(c1)-c1cnn3ccc(nc13)NC[C@H]1CCCN1CCCO2 [Compound O6] |  |  |
| < 50 | < 50 | > 7.00 | 198.5 | CN1C[C@@H]2CCCN2CCOc2cccc(c2)-c2cnn3ccc1nc23 [Compound O10] |  |  |
|  |  | > 7.00 |  | Fc1cc2cc(c1)-c1cnn3ccc(nc13)NCC1CCCCN1CCCO2 (stereo not drawn) [Compound O14] |  |  |
